Data published in publication PMC8854719, “Phase 1A/1B dose-escalation and -expansion study to evaluate the safety, pharmacokinetics, food effects and antitumor activity of pamiparib in advanced solid tumours” (British Journal of Cancer, 2021).

Columns and labels:
[1] = system: epithelial ovarian cancer (EOC); assay: GCIG CA-125 response; format: in vivo, human; conditions: CA-125–evaluable population (n=12)
Procedure: Tumour response was evaluated by RECIST v1.1. For patients with ovarian cancer, tumour response was assessed per RECIST v1.1 and by Gynecologic Cancer Intergroup (GCIG) CA-125 criteria. Tumour response for patients with prostate cancer was assessed by Prostate Cancer Clinical Trials Working Group 2 (PCWG2) criteria. Objective response rate (ORR) was defined as the proportion of patients achieving a confirmed complete response (CR) or partial response (PR) on study treatment. Blood tumour antigens (e.g., carcinoembryonic antigen for colorectal cancer, CA-125 for ovarian cancer and prostate-specific antigen [PSA] for mCRPC) were assessed during screening, every 6 weeks after the first pamiparib dose in the first 12 months, and every 9 weeks thereafter.
The safety population comprised all patients in the dose-escalation and dose-expansion phases who received at least one dose of pamiparib (Supplementary Table S2). Patients in the safety analysis set for whom valid pamiparib PK parameters were estimated and for whom evaluable PD results were available represented the PK population and the PD population, respectively. The efficacy-evaluable population included patients in the safety analysis set who had at least one evaluable postbaseline tumour assessment or those who discontinued due to clinical disease progression or early death before tumour assessment could be performed. […]

[2] = Food-effects cohort: PK fasted vs high-fat meal; format: in vivo, human
Procedure: Patients in the food-effects cohort received a single dose of pamiparib 60 mg (based on the RP2D) on day 1 of cycle 1, followed by a 5-day washout; patients then received another single dose of 60 mg on day 6. Seven patients in sequence 1 (fast followed by fed) received pamiparib after a ≥ 10-h fast on day 1 and after consuming a standard high-fat meal (described in the Supplemental Appendix) 30 min prior to drug administration on day 6. Six patients in sequence 2 (fed followed by fast) received pamiparib after a high-fat meal on day 1 and after a ≥ 10-h fast on Day 6. From day 8 of cycle 1 onward, patients received 60-mg BID treatment.
Pamiparib in plasma was measured using a validated liquid chromatography-tandem–mass spectrometry assay with a lower limit of quantification of 1.0 ng/mL. The collection schedule for blood samples used to assess the PK profile is presented in the Supplemental Appendix. Summary PK parameters, including area under the concentration-time curve from time 0 to 9 h (AUC0-9) or infinity (AUC0-inf), maximal plasma concentration (Cmax) and time to maximal plasma concentration (Tmax), were estimated. The pharmacodynamic (PD) activity of pamiparib was explored through the evaluation of poly(ADP-ribose [PAR]) formation in peripheral blood mononuclear cells (PBMCs) after pamiparib administration. The schedule for blood sample collection (PK and PBMCs) and additional assessment information for PAR levels in PBMCs and pharmacodynamic activity is presented in the Supplemental Appendix. Antitumor activity was assessed by radiographic imaging (computed tomography or magnetic resonance imaging) during screening, within 28 days of first pamiparib dose, every 6 weeks in the first 12 months and every 9 weeks thereafter.
An example of a recommended United States Food and Drug Administration (US FDA) standard high-fat meal comprises two eggs fried in butter, two strips of bacon, two slices of toast with butter, 4 ounces of hash brown potatoes, and 8 ounces of whole milk.
The PK profile of pamiparib was assessed based on blood samples collected at predose and 0.5, 1, 2, 4, 6, 9, 24, and 48 hours postdose on Days 1-3 and then at predose and 0.5, 1, 2, 4, 6, and 9 hours postdose on Day 17 of Cycle 1 in Phase 1A. Sparse PK samples were collected in phase 1B Part A. The food effect on the PK of pamiparib was assessed based on blood samples collected at predose and 0.5, 1, 2, 4, 7, 24, and 48 hours postdose on Day 1 and Day 6 of Cycle 1 in phase 1B Part B.

[3] = single 60 mg dose, high-fat breakfast vs fasted

With `C[C@]12CCCN1CC1=NNC(=O)c3cc(F)cc4[nH]c2c1c34` [pamiparib] as the compound, how does the “GCIG CA-125 response rate” value [1] read?
Its value is 83.3%.

What about the “Median time to CA-125 response” value [1] of the same compound?
The value was 1.38 months.

And the “Food effects on pharmacokinetics (in words)” value ([2]; 60 mg single dose)?
Its value is “no food effects”.

And the Tmax ([2]; human, plasma, oral, single 60 mg dose with a high-fat breakfast, read-out: Median Tmax)?
The Tmax was 7 h.

And the “Reduction of AUC0-inf with food” value [2, 3]?
Its value is 12%.

What about the “Reduction of Cmax with food” value [2, 3] of the same compound?
Its value is 41%.
